From PubChem BioAssay AID1963968 (Molecular Pharmacology Branch, DTP, NCI, 2024)

System: 945468-187-T-J3-PDC spheroids with HUVEC/MSC, viability
Assay: Anticancer human tumor 945468-187-T-J3-PDC patient-derived rectal carcinoma cell line growth inhibition [PI3K]
Conditions: for IC50: curve of first compound; for viability, T/C: stronger effect = lower value
Procedure, shortened: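 Spheroid viability read-out. Co-cultures contained the tumor line plus HUVEC and human MSCs. Each agent was paired with a PI3K inhibitor (inavolisib, alpelisib, duvelisib, copanlisib) across half-log dilutions starting at clinical Cmax, or at 10 microM when Cmax was unknown.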

[1] = second compound 0.00316 µM, first compound 0.0316 µM
[2] = second compound 0.00316 µM, first compound 0.1 µM
[3] = second compound 0.00316 µM, first compound 0.316 µM
[4] = second compound 0.00316 µM, first compound 1 µM
[5] = second compound 0.01 µM, first compound 0.0316 µM
[6] = second compound 0.01 µM, first compound 0.1 µM
[7] = second compound 0.01 µM, first compound 0.316 µM
[8] = second compound 0.01 µM, first compound 1 µM
[9] = second compound 0.0316 µM, first compound 0.0316 µM
[10] = second compound 0.0316 µM, first compound 0.1 µM
[11] = second compound 0.0316 µM, first compound 0.316 µM
[12] = second compound 0.0316 µM, first compound 1 µM
[13] = second compound 0.1 µM, first compound 0.0316 µM
[14] = second compound 0.1 µM, first compound 0.1 µM
[15] = second compound 0.1 µM, first compound 0.316 µM
[16] = second compound 0.1 µM, first compound 1 µM
[17] = second compound 0.316 µM, first compound 0.0316 µM
[18] = second compound 0.316 µM, first compound 0.1 µM
[19] = second compound 0.316 µM, first compound 0.316 µM
[20] = second compound 0.316 µM, first compound 1 µM
[21] = second compound 1 µM, first compound 0.0316 µM
[22] = second compound 1 µM, first compound 0.1 µM
[23] = second compound 1 µM, first compound 0.316 µM
[24] = second compound 1 µM, first compound 1 µM
[25] = second compound 0.00316 µM, first compound 3.16 µM
[26] = second compound 0.00316 µM, first compound 10 µM
[27] = second compound 0.01 µM, first compound 3.16 µM
[28] = second compound 0.01 µM, first compound 10 µM
[29] = second compound 0.0316 µM, first compound 3.16 µM
[30] = second compound 0.0316 µM, first compound 10 µM
[31] = second compound 0.1 µM, first compound 3.16 µM
[32] = second compound 0.1 µM, first compound 10 µM
[33] = second compound 0.316 µM, first compound 3.16 µM
[34] = second compound 0.316 µM, first compound 10 µM
[35] = second compound 1 µM, first compound 3.16 µM
[36] = second compound 1 µM, first compound 10 µM
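Note: spheroids exposed to agents for 7 days before viability read.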
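Throughout, for viability, T/C: 100% = DMSO vehicle control viability.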

CCN1CCN(Cc2ccc(Nc3ncc(F)c(-c4cc(F)c5nc(C)n(C(C)C)c5c4)n3)nc2)CC1 + COc1c(OCCCN2CCOCC2)ccc2c3n(c(=NC(=O)c4cnc(N)nc4)nc12)CCN3
IC50 (second compound 0.00316 µM): > 1 µM
IC50 (second compound 0.01 µM): 0.662 µM
IC50 (second compound 0.0316 µM): 0.256 µM
IC50 (second compound 0.1 µM): 0.00532 µM
IC50 (second compound 0.316 µM): < 0.00316 µM
IC50 (second compound 1 µM): < 0.00316 µM
viability, T/C (second compound 0.00316 µM, first compound 0.00316 µM): 88.6%
viability, T/C (second compound 0.00316 µM, first compound 0.01 µM): 83.6%
viability, T/C [1]: 80.5%
viability, T/C [2]: 82.3%
viability, T/C [3]: 95.2%
viability, T/C [4]: 53.5%
viability, T/C (second compound 0.01 µM, first compound 0.00316 µM): 107%
viability, T/C (second compound 0.01 µM, first compound 0.01 µM): 82.3%
viability, T/C [5]: 110%
viability, T/C [6]: 89.8%
viability, T/C [7]: 79.4%
viability, T/C [8]: 33.8%
viability, T/C (second compound 0.0316 µM, first compound 0.00316 µM): 90.2%
viability, T/C (second compound 0.0316 µM, first compound 0.01 µM): 81.8%
viability, T/C [9]: 82.2%
viability, T/C [10]: 75.1%
viability, T/C [11]: 44.3%
viability, T/C [12]: 22.3%
viability, T/C (second compound 0.1 µM, first compound 0.00316 µM): 57%
viability, T/C (second compound 0.1 µM, first compound 0.01 µM): 41.3%
viability, T/C [13]: 30.7%
viability, T/C [14]: 24.1%
viability, T/C [15]: 18.2%
viability, T/C [16]: 17.9%
viability, T/C (second compound 0.316 µM, first compound 0.00316 µM): 25.4%
viability, T/C (second compound 0.316 µM, first compound 0.01 µM): 16.3%
viability, T/C [17]: 14.8%
viability, T/C [18]: 16.9%
viability, T/C [19]: 17.1%
viability, T/C [20]: 16.6%
viability, T/C (second compound 1 µM, first compound 0.00316 µM): 15.2%
viability, T/C (second compound 1 µM, first compound 0.01 µM): 16.1%
viability, T/C [21]: 13.6%
viability, T/C [22]: 16.8%
viability, T/C [23]: 19%
viability, T/C [24]: 16.4%

Cn1ncc(Cl)c1-c1cc(C(=O)NC(CN)Cc2cccc(F)c2)sc1Cl (stereo unspecified) + COc1c(OCCCN2CCOCC2)ccc2c3n(c(=NC(=O)c4cnc(N)nc4)nc12)CCN3
IC50 (second compound 0.00316 µM): 1.01 µM
IC50 (second compound 0.01 µM): 0.653 µM
IC50 (second compound 0.0316 µM): 0.368 µM
IC50 (second compound 0.1 µM): < 0.0316 µM
IC50 (second compound 0.316 µM): < 0.0316 µM
IC50 (second compound 1 µM): < 0.0316 µM
viability, T/C [1]: 88.3%
viability, T/C [2]: 82.3%
viability, T/C [3]: 77.4%
viability, T/C [4]: 48.8%
viability, T/C [25]: 32.7%
viability, T/C [26]: 25.2%
viability, T/C [5]: 83.4%
viability, T/C [6]: 83.7%
viability, T/C [7]: 67%
viability, T/C [8]: 36.9%
viability, T/C [27]: 30.9%
viability, T/C [28]: 14.7%
viability, T/C [9]: 83%
viability, T/C [10]: 80.3%
viability, T/C [11]: 51.1%
viability, T/C [12]: 29.1%
viability, T/C [29]: 29%
viability, T/C [30]: 12.9%
viability, T/C [13]: 39.4%
viability, T/C [14]: 34.8%
viability, T/C [15]: 28.4%
viability, T/C [16]: 24.3%
viability, T/C [31]: 20.5%
viability, T/C [32]: 7.64%
viability, T/C [17]: 20.5%
viability, T/C [18]: 19.1%
viability, T/C [19]: 17.4%
viability, T/C [20]: 19.6%
viability, T/C [33]: 23.4%
viability, T/C [34]: 3.82%
viability, T/C [21]: 18%
viability, T/C [22]: 16.8%
viability, T/C [23]: 16.9%
viability, T/C [24]: 16.1%
viability, T/C [35]: 16%
viability, T/C [36]: 1.05%

Cn1nccc1Nc1nccc(-c2ccn(C(CO)c3ccc(Cl)c(F)c3)c(=O)c2)n1 (stereo unspecified) + COc1c(OCCCN2CCOCC2)ccc2c3n(c(=NC(=O)c4cnc(N)nc4)nc12)CCN3
IC50 (second compound 0.00316 µM): > 10 µM
IC50 (second compound 0.01 µM): > 10 µM
IC50 (second compound 0.0316 µM): > 10 µM
IC50 (second compound 0.1 µM): < 0.0316 µM
IC50 (second compound 0.316 µM): < 0.0316 µM
IC50 (second compound 1 µM): < 0.0316 µM
viability, T/C [1]: 95.1%
viability, T/C [2]: 93%
viability, T/C [3]: 102%
viability, T/C [4]: 98.9%
viability, T/C [25]: 109%
viability, T/C [26]: 111%
viability, T/C [5]: 97.5%
viability, T/C [6]: 87.7%
viability, T/C [7]: 119%
viability, T/C [8]: 97.5%
viability, T/C [27]: 123%
viability, T/C [28]: 104%
viability, T/C [9]: 97.7%
viability, T/C [10]: 85%
viability, T/C [11]: 93.5%
viability, T/C [12]: 85.6%
viability, T/C [29]: 83.4%
viability, T/C [30]: 66%
viability, T/C [13]: 49.7%
viability, T/C [14]: 44.1%
viability, T/C [15]: 55.6%
viability, T/C [16]: 43.9%
viability, T/C [31]: 40.5%
viability, T/C [32]: 42.8%
viability, T/C [17]: 20.9%
viability, T/C [18]: 18.9%
viability, T/C [19]: 18.2%
viability, T/C [20]: 19.4%
viability, T/C [33]: 15.3%
viability, T/C [34]: 14.5%
viability, T/C [21]: 14.9%
viability, T/C [22]: 15.5%
viability, T/C [23]: 11.3%
viability, T/C [24]: 9.48%
viability, T/C [35]: 8.78%
viability, T/C [36]: 7.89%
